Experiment: HILIC, Merck SeQuant ZIC-HILIC, 100 × 2.1 mm, 3.5 µm, 25 °C, 0.3 mL/min, estimated dead time 0.73 min; A: water + 0.1% formic acid, pH 3; B: acetonitrile + 0.1% formic acid, pH 3; gradient (min/%B) 0/95 1.5/95 13.5/40 15.5/40 29.7/25 33.5/25 34.5/95 41.5/95
Details: stereoisomer not certain

Row | LC retention time | SMILES
1 | 8.57 min | NCC(=O)CCC(=O)O [5-aminolevulinic acid]
2 | 7.44 min | NCCS(=O)(=O)O [Taurine]
3 | 6.01 min | CC(O)C(O)c1cnc2nc(N)[nH]c(=O)c2n1 (stereo not drawn) [Biopterin]
4 | 8.29 min | NC(CCO)C(=O)O (stereo not drawn) [Homoserine]
5 | 8.52 min | NC(=O)CCC(N)C(=O)O (stereo not drawn) [Glutamine]
6 | 7.85 min | CCC(NC(=O)CCC(N)C(=O)O)C(=O)NCC(=O)O (stereo not drawn) [Ophthalmic acid]
7 | 2.27 min | OCCc1ccc(O)c(O)c1 [3,4-dihydroxyphenylethanol]
8 | 8.22 min | OCCNCCO [Diethanolamine]
9 | 6.67 min | C[N+](C)(C)[O-] [Trimethylamine N-oxide]
10 | 8.67 min | NC(=O)CC(N)C(=O)O (stereo not drawn) [Asparagine]
11 | 4.63 min | CC(O)C(=O)C1=Nc2c(nc(N)[nH]c2=O)NC1 (stereo not drawn) [Sepiapterin]
12 | 5.65 min | C[N+](C)(C)C(Cc1c[nH]c2ccccc12)C(=O)[O-] (stereo not drawn) [Tryptophan betaine]
13 | 8.65 min | CC(O)CN (stereo not drawn) [1-amino-2-propanol]
14 | 4.27 min | O=c1[nH]c(=O)c2cn[nH]c2[nH]1 [Alloxanthine]
15 | 10.1 min | NC(CCCCNC(CCC(=O)O)C(=O)O)C(=O)O (stereo not drawn) [Saccharopine]
16 | 7.64 min | NC(CSS(=O)(=O)O)C(=O)O (stereo not drawn) [Cysteine-S-sulfate]
17 | 7.32 min | OCC1OC(OC2(CO)OC(CO)C(O)C2O)C(O)C(O)C1O (stereo not drawn) [Sucrose]
18 | 9.12 min | O=S(=O)(O)CCN1CCN(CCS(=O)(=O)O)CC1 [PIPES]
19 | 1.96 min | CC(CCC(=O)O)C1CCC2C3C(O)CC4CC(O)CCC4(C)C3CC(O)C12C (stereo not drawn) [cholic acid]
20 | 4.98 min | O=c1ccn(C2OC(CO)C(O)C2O)c(=O)[nH]1 (stereo not drawn) [Uridine]
21 | 10.6 min | C[N+](C)(C)CCOP(=O)(O)OP(=O)([O-])OCC1OC(n2ccc(N)nc2=O)C(O)C1O (stereo not drawn) [Citicholine]
22 | 2.12 min | O=C(O)c1ccccc1C(=O)O [Phthalic acid]
23 | 1.05 min | COC(=O)c1nccnc1N [Methyl 3-aminopyrazine-2-carboxylic acid]
24 | 12.6 min | Cn1cncc1CC(NC(=O)CCN)C(=O)O [L-Anserine]
25 | 6.15 min | CCCC(C(=O)[O-])[N+](C)(C)C (stereo not drawn) [Norvaline betaine]

Row | LC retention time | SMILES
26 | 8.42 min | CC(=O)NC(CCCC[NH3+])C(=O)[O-] (stereo not drawn) [N-Alpha-acetyllysine]
27 | 7.71 min | O=C(O)CNC(=O)C1CCCN1 (stereo not drawn) [Proline-glycine]
28 | 1.85 min | O=C1CCCCN1 [2-Piperidone]
29 | 5.89 min | COC(=O)C(Cc1ccccc1)NC(=O)C(N)CC(=O)O (stereo not drawn) [Aspartame]
30 | 5.36 min | O=c1[nH]c(=O)c2ncn(C3OC(CO)C(O)C3O)c2[nH]1 (stereo not drawn) [Xanthosine]
31 | 5.46 min | NC(COCc1ccccc1)C(=O)O (stereo not drawn) [Benzylserine]
32 | 4.02 min | O=C1CC(C(=O)O)NC(=O)N1 (stereo not drawn) [Dihydroorotic acid]
33 | 3.62 min | O=C(O)Cc1c[nH]c2ccc(O)cc12 [5-hydroxyindoleacetate]
34 | 7.89 min | CS(=O)(=O)CCC(N)C(=O)O [L-methionine sulfone]
35 | 7.08 min | Cc1ncc(CO)c(CO)c1O [Pyridoxine]
36 | 6.85 min | CC1=NCCC(C(=O)O)N1 (stereo not drawn) [Ectoine]
37 | 6.71 min | CC(NC(=O)C(Cc1ccccc1)NC(=O)C(N)CC(=O)O)C(=O)O (stereo not drawn) [Asp-Phe-Ala]
38 | 7.26 min | CN1CCC[C@H]1C(=O)O [N-Methyl-L-proline]
39 | 1.24 min | O=C(O)c1ccc2ccccc2n1 [Quinaldic acid]
40 | 10 min | N[C@H]1C(O)O[C@H](COP(=O)(O)O)[C@@H](O)[C@@H]1O (stereo partly drawn) [D-glucosamine-6-phosphate]
41 | 12.2 min | NC(N)=NCCC[C@H](N)C(=O)O [L-Arginine]
42 | 5.99 min | CC(C)C(C(=O)O)[N+](C)(C)C (stereo not drawn) [Valine betaine]
43 | 7.06 min | CC(=O)NC1C(O)CC(O)(C(=O)O)OC1C(O)C(O)CO (stereo not drawn) [N-Acetylneuraminic acid]
44 | 4.5 min | CCC(=O)OC(CC(=O)[O-])C[N+](C)(C)C (stereo not drawn) [Propionylcarnitine]
45 | 5.11 min | OCC(O)C(O)CO (stereo not drawn) [Erythritol]
46 | 7.59 min | CC(=O)NCCCC[C@H]([NH3+])C(=O)[O-] [N6-Acetyl-L-lysine]
47 | 8.59 min | CS(=O)CCC(N)C(=O)O (stereo not drawn) [Methionine sulfoxide]
48 | 6.22 min | C=C(OP(=O)(O)O)C(=O)[O-] [Phosphoenol pyruvate]
49 | 7.62 min | NC(CS)C(=O)O (stereo not drawn) [Cysteine]
50 | 12.5 min | NCCCCC(N)C(=O)O (stereo not drawn) [Lysine]

Row | LC retention time | SMILES
51 | 2.09 min | Nc1cccc(C(=O)O)c1 [m-Aminobenzoic acid]
52 | 4.49 min | O=C1OC(CO)C(O)C(O)C1O (stereo not drawn) [Gluconolactone]
53 | 6.76 min | CC[C@H](C)[C@H](N)C(=O)O [L-Isoleucine]
54 | 3.78 min | Cn1c(=O)[nH]c2[nH]c(=O)n(C)c2c1=O [1,7-dimethyluric acid]
55 | 9.31 min | NCC(O)c1ccc(O)c(O)c1 (stereo not drawn) [Noradrenaline]
56 | 3.71 min | CC(=O)NC(CCC(=O)O)C(=O)O (stereo not drawn) [N-acetylglutamate]
57 | 7.49 min | CC(NC(=O)C(N)Cc1ccccc1)C(=O)NC(CO)C(=O)O (stereo not drawn) [Phe-Ala-Ser]
58 | 7.41 min | NC(CCS)C(=O)O (stereo not drawn) [Homocysteine]
59 | 8.12 min | O=C(O)[C@H]1NCCC1O (stereo partly drawn) [3-hydroxyproline]
60 | 6.57 min | CC(C)(C)NCC(O)c1ccc(O)c(CO)c1 (stereo not drawn) [Salbutamol]
61 | 11.1 min | NC(CCCC(N)C(=O)O)C(=O)O (stereo not drawn) [2,6-diaminopimelic acid]
62 | 1.85 min | CSCCC(NC=O)C(=O)O (stereo not drawn) [N-formylmethionine]
63 | 7.71 min | C1CCNC1 [Pyrrolidine]
64 | 4.69 min | O=c1[nH]cnc2c1ncn2C1CC(O)C(CO)O1 (stereo not drawn) [2-deoxyinosine]
65 | 1.06 min | COC(=O)c1ccccn1 [Methylpicolinate]
66 | 8.41 min | Nc1ncnc2c1ncn2C1OC(COP(=O)(O)O)C(O)C1O (stereo not drawn) [Adenosine mono-phosphate]
67 | 1.58 min | CC(=O)NC(Cc1ccccc1)C(=O)O (stereo not drawn) [N-acetylphenylalanine]
68 | 10.1 min | Nc1ncnc2c1ncn2C1OC(CSCCC([NH3+])C(=O)[O-])C(O)C1O (stereo not drawn) [S-adenosylhomocysteine]
69 | 7.08 min | CC(C)C(NC(=O)CN)C(=O)O (stereo not drawn) [Glycyl-valine]
70 | 8.84 min | CN(C)C(=N)N=C(N)N [Metformin]
71 | 8.35 min | CC(=O)NC(CCC[NH+]=C(N)N)C(=O)[O-] (stereo not drawn) [N-Acetylarginine]
72 | 4.14 min | Cc1ncc(CO)c(C(=O)O)c1O [4-pyridoxic acid]
73 | 1.05 min | Cc1ccccc1C(=O)NCC(=O)O [Methylhippurate]
74 | 1.16 min | COC(=O)c1cccnc1 [Methyl nicotinic acid]
75 | 2.26 min | CNC(=O)c1cccnc1 [N-Methylnicotinamide]

Row | LC retention time | SMILES
76 | 4.42 min | O=C(C=Cc1ccc(O)c(O)c1)OC1CC(O)(C(=O)O)CC(O)C1O (stereo not drawn) [Chlorogenic acid]
77 | 6.54 min | CC(C)CC(NC(=O)C(C)N)C(=O)O (stereo not drawn) [Alanyl-leucine]
78 | 8.17 min | NC(Cc1ccc(O)c(O)c1)C(=O)O (stereo not drawn) [3,4-dihydroxyphenylalanine]
79 | 6.86 min | OCC1OC(O)C(O)C(O)C1O (stereo not drawn) [Glucose]
80 | 1.46 min | O=C(O)c1c[nH]c2ccccc12 [Indole-3-carboxylic acid]
81 | 4.94 min | Cc1ncc(CO)c(C=O)c1O [Pyridoxal]
82 | 7.39 min | CN[C@H](CC(=O)O)C(=O)O [N-methyl-D-aspartic acid]
83 | 5.5 min | C[N+](C)(C)[C@@H](Cc1ccccc1)C(=O)[O-] [Phenylalanine betaine]
84 | 0.94 min | O=C(C=CC=Cc1ccc2c(c1)OCO2)N1CCCCC1 [Piperine]
85 | 6.36 min | Oc1cccnc1 [3-Hydroxypyridine]
86 | 5.8 min | CC(C)CC(NC(=O)C(C)NC(=O)C(N)Cc1ccccc1)C(=O)O (stereo not drawn) [Phe-Ala-Leu]
87 | 6.62 min | Cn1cnc2nc(N)[nH]c(=O)c21 [7-methylguanine]
88 | 6 min | Nc1ccccc1O [2-Aminophenol]
89 | 7.51 min | NC(N)=NCCCC(=O)O [4-Guanidinobutanoic acid]
90 | 3.46 min | CC(=O)OCC[N+](C)(C)C [Acetylcholine]
91 | 1.44 min | O=C(O)CNC(=O)c1ccccc1O [o-Hydroxyhippuric acid]
92 | 2.58 min | Cc1cn(C2CC(O)C(CO)O2)c(=O)[nH]c1=O (stereo not drawn) [Thymidine]
93 | 5 min | O=C(O)C=Cc1cnc[nH]1 [cis-urocanic acid]
94 | 7.57 min | NC(CCC(=O)O)C(=O)NC(Cc1ccc(O)cc1)C(=O)O (stereo not drawn) [a-glutamyl-tyrosine]
95 | 6.72 min | CC1CCCN1 (stereo not drawn) [2-Methylpyrrolidine]
96 | 2.03 min | CC(=O)NCCc1c[nH]c2ccc(O)cc12 [N-acetyl-5-hydroxytryptamine]
97 | 2.63 min | NC(=O)CCC(NC(=O)Cc1ccccc1)C(=O)O (stereo not drawn) [Phenylacetylglutamine]

Row | SMILES | LC retention time
98 | CNCC(O)c1ccc(O)c(OC)c1 (stereo not drawn) [Metanephrine] | 7.06 min
99 | NCCc1c[nH]c2ccc(O)cc12 [Serotonin] | 7.73 min
100 | NCC(O)c1ccc(O)cc1 (stereo not drawn) [Octopamine] | 7.57 min
101 | NCCc1c[nH]c2ccccc12 [Tryptamine] | 6.1 min
102 | NCCc1cc(O)c(O)cc1O [Hydroxydopamine] | 9.19 min
103 | O=c1[nH]c2ccccc2o1 [2-Benzoxazolinone] | 1.01 min

From the RepoRT retention time repository (doi:10.1021/acs.analchem.7b00925)
